The nature of series [1]: Tail bleeding assay, combination with PLAVIX (Example 27). The conditions noted are these: ISIS 404071 0. The series is classed as in vivo, BALB/c mice. The method, then: ISIS 404071 was administered subcutaneously at a dosage of 20 mg/kg twice a week for 3 weeks to 5 groups of eight BALB/c mice. After the last dose of ISIS 404071, mice were treated with 0 mg/kg, 6.25 mg/kg, 12.50 mg/kg, 25.00 mg/kg, or 50.00 mg/kg of PLAVIX. Two doses of PLAVIX were administered to the mice on day one and one dose of PLAVIX was administered on day two, two hours before bleeding.
Two hours after receiving their final treatment, mice were placed in a tail bleeding chamber. […] The blood was collected for the course of 40 minutes.

Series [2] deals with platelet factor-4 (PF-4). In words: Thrombus formation by PF-4, FeCl3 induced VT model, combination with PLAVIX (Example 26). The conditions noted are these: for PF-4 mRNA, percent as compared to the PBS + FeCl3 control (thrombus formation): ISIS 404071 0 mg/kg. The series is classed as in vivo, BALB/c mice. Here is the method: The combination of ISIS 404071 and PLAVIX was evaluated in the FeCl3 induced VT mouse model. Four groups of eight BALB/c mice, weighing approximately 25 g each, were treated with 6.25 mg/kg, 12.50 mg/kg, 25.00 mg/kg, or 50.00 mg/kg of PLAVIX. Mice were given two doses of PLAVIX on day one and one dose of PLAVIX on day two, two hours before surgery.
After the last dose of ISIS 404071, mice were treated with 6.25 mg/kg, 12.50 mg/kg, 25.00 mg/kg, or 50.00 mg/kg of PLAVIX. Two doses of PLAVIX were administered to the mice on day one and one dose of PLAVIX was administered on day two, two hours before surgery.
Two control groups of eight BALB/c mice, weighing approximately 25 g each, were not treated with ISIS 404071 or PLAVIX. […] Thrombus formation was induced with FeCl3 in all of the mice except the first […] control groups. All mice were anesthetized with 150 mg/kg of ketamine mixed with 10 mg/kg of xylazine administered by intraperitoneal injection.
After 3 minutes of exposure, the filter paper was removed. Thirty minutes after the filter paper application, a fixed length of the vein containing the thrombus was dissected out for platelet analysis.
Real-time PCR quantification of PF-4 was used to quantify platelets in the vena cava as a measure of thrombus formation. […] Therefore, the combination of anti-platelet therapy with Factor 11 ASO increases antithrombotic activity. Data is presented as percent of PF-4 mRNA as compared to the PBS+ FeCl3 control.

A further series deals with Factor 11 mRNA. In words: Factor 11 mRNA in liver, FeCl3 induced venous thrombosis model vs Apixaban (Example 14). The series is classed as in vivo, BALB/c mice. To be noted: for % inhibition of Factor 11 mRNA in liver relative to PBS control: FeCl3 VT model. The method, then:
(§1) ISIS 404071 and Apixaban were evaluated in the FeCl3 induced VT mouse model. […] Two days after receiving the last dose of ISIS 404071, mice were anesthetized with 150 mg/kg ketamine mixed with 10 mg/kg xylazine administered by intraperitoneal injection. […] Twenty minutes after receiving Apixaban, mice were anesthetized with 150 mg/kg ketamine mixed with 10 mg/kg xylazine administered by intraperitoneal injection. […] Two days after the last dose of PBS, mice in both groups were anesthetized with 150 mg/kg ketamine mixed with 10 mg/kg xylazine administered by intraperitoneal injection. Thrombus formation was induced with FeCl3 in all of the mice except the first control group.
(§2) In mice undergoing FeCl3 treatment, thrombus formation was induced by applying a piece of filter paper (2×4 mm) pre-saturated with 10% FeCl3 solution directly on the vena cava. After 3 minutes of exposure, the filter paper was removed. Thirty minutes after the filter paper application, a fixed length of the vein containing the thrombus was dissected out for platelet analysis. Liver was collected for RNA analysis.
RNA was extracted from liver tissue for real-time PCR analysis of Factor 11. Results are presented as percent inhibition of Factor 11, relative to PBS control.

Series [3] concerns platelet factor-4 (PF-4). In words: Thrombus formation by PF-4 real-time PCR, FeCl3 induced venous thrombosis model vs Apixaban (Example 14). The series is classed as in vivo, BALB/c mice. To be noted: for PF-4 in vena cava, percentage as compared to PBS controls (thrombus formation): + FeCl3. Here is the method:
as §1, §2
Real-time PCR quantification of platelet factor-4 (PF-4) was used to quantify platelets in the vena cava as a measure of thrombus formation. […] Results are presented as a percentage of PF-4 in ISIS 404071 or Apixaban treated mice, as compared to the two PBS-treated control groups.
On the technique in general: Quantitative PCR measures a nucleic acid by following its amplification.

A short description of series [4]: Tail bleeding assay, Apixaban in combination with PLAVIX (Example 28). The series is classed as in vivo, BALB/c mice. The method, then: Five groups of eight BALB/c mice were treated with 0 mg/kg, 6.25 mg/kg, 12.50 mg/kg, 25.00 mg/kg, or 50.00 mg/kg of PLAVIX. Mice were given two doses of PLAVIX on day one and one dose of PLAVIX on day two, two hours before bleeding. An additional five groups of eight BALB/c mice were treated with 0 mg/kg, 6.25 mg/kg, 12.50 mg/kg, 25.00 mg/kg, or 50.00 mg/kg of PLAVIX. Mice were given two doses of PLAVIX on day one and one dose of PLAVIX on day two, two hours before bleeding. […] Two hours after receiving their final treatment, mice were placed in a tail bleeding chamber.

The conditions of series [5]: apixaban added to aspirin and to aspirin plus clopidogrel, compared with aspirin alone and aspirin plus clopidogrel (Wong); cited from earlier work.
Details of series [6]: species or system BALB/c mice. To be noted: mouse, in vivo. Here is the method:
ISIS 404071 and Apixaban were evaluated in the tail bleeding model.
The saline filled tubes were weighed before and after bleeding.

For another series, the system named is blood coagulation. In words: PT and aPTT, combination with Apixaban (Example 20). The series is classed as in vivo, BALB/c mice. Here is the method: PT and aPTT were measured using PPP from mice treated with ISIS 404071 in combination with Apixaban. In the first cohort, ISIS 404071 was administered subcutaneously to BALB/c mice at a dosage of 25 mg/kg twice a week for 3 weeks. Plasma was collected from these mice 5 days after receiving the last dose of ISIS 404071. In the second cohort, Apixaban was administered subcutaneously to BALB/c mice at a dosage of 6 mg/kg twice daily for three days. Plasma was collected from these mice 20 minutes after receiving the last dose of Apixaban. In the third cohort, ISIS 404071 was administered subcutaneously to BALB/c mice at a dosage of 20 mg/kg twice a week for 3 weeks, and Apixaban was administered subcutaneously at a dosage of 6 mg/kg twice daily on the last three days of ISIS 404071 treatment. Plasma was collected from these mice 20 minutes after receiving the last dose of Apixaban. In a fourth cohort, PBS was administered subcutaneously twice a week for three weeks, as a control. Plasma was collected 5 days after the last dose of PBS.
PT and aPTT values provided in Table 32 are reported as International Normalized Ratio (INR) values. […] However, Apixaban and Apixaban combined with ISIS 404071 increased PT. Also shown in Table 32, Apixaban, ISIS 404071, and ISIS 404071 combined with Apixaban increase aPTT.

Where [7] appears, read: Apixaban 0.5 mg/kg subcutaneously one time.
[8] abbreviates: Apixaban 2 mg/kg subcutaneously one time.
[9] abbreviates: Apixaban 5 mg/kg subcutaneously one time.
[10] abbreviates: Apixaban 10 mg/kg subcutaneously one time.
The mark [11] stands for this setting: Apixaban 20 mg/kg subcutaneously one time.
Where [12] appears, read: BALB/c mice, ISIS 404071 25 or 20 mg/kg, Apixaban 6 mg/kg twice daily.
[13] abbreviates: ISIS 404071 alone 25 mg/kg s.c. twice a week for 3 weeks, Apixaban alone 6 mg/kg s.c. twice daily for three days, combination 20 mg/kg + 6 mg/kg.

`COC(=O)[C@H](c1ccccc1Cl)N1CCc2sccc2C1` [PLAVIX, clopidogrel]: the entries for the “Blood (tail bleeding, collected for 40 minutes)” value in series [1] (PLAVIX 6.25 mg/kg), in series [1] (PLAVIX 12.50 mg/kg) and in series [1] (PLAVIX 50.00 mg/kg) were 0.075 g, 0.205 g and 0.628 g, respectively. Also, the “PF-4 in vena cava as measure of thrombus formation” value with platelet factor-4 (PF-4) [2] (FeCl3 induced VT model, PLAVIX 6.25-50 mg/kg, ISIS 404071 20 mg/kg) was “resulted in a reduction of PF-4”. Besides, the “PF-4 mRNA, percent as compared to the PBS + FeCl3 control (thrombus formation)” value with platelet factor-4 (PF-4) [2] (PLAVIX 6.25 mg/kg) is on record as 59%; in the series with platelet factor-4 (PF-4) [2] (PLAVIX 12.50 mg/kg), 37%; with platelet factor-4 (PF-4) [2] (PLAVIX 50.00 mg/kg), 30%; in the series on platelet factor-4 (PF-4) [2] (PLAVIX […]), 30%.
For the compound `COc1ccc(-n2nc(C(N)=O)c3c2C(=O)N(c2ccc(N4CCCCC4=O)cc2)CC3)cc1` [Apixaban, reference compound], the “% inhibition of Factor 11 mRNA in liver relative to PBS control” value came out at 5% with Factor 11 mRNA (setting [7]); 8% with Factor 11 mRNA (setting [8]); 12% with Factor 11 mRNA (setting [9]); 2% with Factor 11 mRNA (setting [10]); 0% with Factor 11 mRNA (setting [11]). Also, the “Factor 11 mRNA in liver vs PBS control” value in the series on Factor 11 mRNA (FeCl3 induced VT model, ISIS 404071 1.25-40 mg/kg, Apixaban 0.5-5 mg/kg s.c. once) was “did not result in significant reduction of Factor 11”. The “PF-4 in vena cava, percentage as compared to PBS controls (thrombus formation)” value amounted to 67% in the series on platelet factor-4 (PF-4) [3] (setting [7]); 46% in the series with platelet factor-4 (PF-4) [3] (setting [8]); 15% in the series on platelet factor-4 (PF-4) [3] (setting [9]); 5% in the series with platelet factor-4 (PF-4) [3] (setting [10]); 26% in the series with platelet factor-4 (PF-4) [3] (setting [11]). Besides, in the series on platelet factor-4 (PF-4) [3] (FeCl3 induced VT model, vs PBS control), the “PF-4 in vena cava as measure of thrombus formation” value was “also resulted in reduction of PF-4”. In series [4] (Apixaban 0.5 mg/kg i.p. in combination with anti-platelet therapy (PLAVIX 0-50 mg/kg)), the “bleeding risk in tail bleeding assay” value is listed as “increases bleeding risk”. The “Blood (tail bleeding, collected for 40 minutes)” value in series [4] (Apixaban 0.5 mg/kg intraperitoneally 20 minutes before bleeding, PLAVIX 0) came to 0.004 g. In series [5], the bleeding time result is “significant increase in bleeding time”. Also, in series [6], the “bleeding in tail bleeding assay” value is “did increase bleeding”. The “PT” value in the series with blood coagulation (setting [12]) is on record as “increased PT”. Moreover, the “aPTT” value in the series on blood coagulation (setting [12]) is “increase aPTT”. The “PT INR” value with blood coagulation (setting [13]) is 3.25 INR. In addition, the “aPTT INR” value in the series on blood coagulation (setting [13]) is on record as 1.44 INR.

(Values after patent US20230263822A1, “MODULATION OF FACTOR 11 EXPRESSION” (Ionis Pharmaceuticals, Inc., priority 2008, published 2023).)
